Consider nine substances from paper PMC7435865, “Antinociceptive and Cytotoxic Activity of Opioid Peptides with Hydrazone and Hydrazide Moieties at the C-Terminus” (Molecules, 2020).

“And” between values parts separate entries of the source, which are not always exact repeats. Equal entries are not always repeated. Where two headings read alike, the source gives them in different places. [ ]: non-standard residue; d: D form.

The subject of one experiment is male Wistar rats. More on the design: method as in PMID 28105278. The note with it: already published ref 33, cited from earlier work.
The next experiment addresses T1, µ opioid receptor (MOR) (Rattus norvegicus, UniProt P33535).
T1 construct: Membrane fractions of rat brain homogenate were incubated at 25 °C for 60 min in the presence of radioligands; from tissue; host or cells: rat brain (membrane fractions of homogenate)
More on the design: method as in PMID 28105278. The following applies: rat brain homogenate; previously reported ref 33; read-out: MOR IC50 ± SEM; cited from earlier work.

Experiment [1] has as its system MeW155 human melanoma cells. The experiment can be described thus: melanoma cell number in culture after incubation with compound. In kind it is cell-based. The note with it: 50 µM, 96 h incubation. The protocol: The determination was performed by counting the cells of the MeW155 cell line after incubating them with 50 µM of the tested compounds.
The cells were plated in 24-well plates (5000 cells per well) and incubated for 24 h in Eagle’s medium containing 10% fetal bovine serum and 1% solution of penicillin and streptomycin. […] Control cells were treated with 1% DMSO only. After 96 h of incubation, the cell suspension was first lysed in lysis buffer (ReagentA, ChemoMetec A/S) and then stabilized in stabilization buffer (ReagentB, ChemoMetec A/S). The number of […] was quantified in a propidium iodide cassette with the use of a NucleoCounter® NC-100™ (ChemoMetec A/S) cell counter. The tests were performed in triplicate. The results were normalized so that the values obtained for the control were 100%.

The subject of the next experiment is MOR. The following applies: cited from earlier work.
For the next experiment, the target named is DOR. Details: method as in PMID 17927164. The note with it: cited from earlier work.

The IC50 is the concentration needed to halve the response being measured. As usually defined, the Ki is the dissociation constant of the complex between target and ligand, obtained from inhibition or displacement.

T1 sequence (P33535 whole entry): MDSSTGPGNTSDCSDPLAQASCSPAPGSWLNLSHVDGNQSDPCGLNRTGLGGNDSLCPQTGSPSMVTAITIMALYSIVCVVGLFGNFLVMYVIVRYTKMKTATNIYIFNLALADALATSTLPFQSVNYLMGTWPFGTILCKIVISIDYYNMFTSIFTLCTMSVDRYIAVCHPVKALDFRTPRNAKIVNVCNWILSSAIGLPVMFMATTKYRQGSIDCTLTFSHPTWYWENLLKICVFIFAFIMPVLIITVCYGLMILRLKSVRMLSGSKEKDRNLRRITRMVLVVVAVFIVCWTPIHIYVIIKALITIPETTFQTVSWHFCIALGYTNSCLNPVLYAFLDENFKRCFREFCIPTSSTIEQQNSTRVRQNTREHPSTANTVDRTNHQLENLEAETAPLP

With “H-Tyr-D-Ala-Gly-Phe-NH-N=CH-3,5-(CF3)2Ph [1a]”, the “antinociceptive effect, % of maximal possible effect” value in the experiment with male Wistar rats (0.5 nmol/rat i.t., 15 min after injection) is ~ 80 % MPE and 80 ± 9 % MPE. The “area under the time course curve (AUC) of analgesic effect” value in the experiment on male Wistar rats (0.5 nmol/rat i.t.) is recorded as 4483 ± 592 units. Also, the “ED50 ± SEM” value in the experiment on male Wistar rats (tail flick, i.t.) is 0.18 ± 0.05 nmol/rat. Also, the half-inhibitory concentration (IC50) with µ opioid receptor (MOR) was 12.7 ± 0.75 nM. Besides, in experiment [1], the “effect on number of melanoma cells (in words)” value is on record as “significantly decrease the number of melanoma cells” and the “number of MeW155 cells, % of the control value” was 39 ± 4 % of the control.

On to H-Tyr-[dA]-Trp-OH, for which, in the experiment on MOR, the IC50 was 977 nM.

In the case of H-Y[dA]FF-NH2 [TAPP], the concentration for half-maximal inhibition (IC50) with MOR (determined in the authors' laboratory) is 5.1 nM.

For the substance H-Tyr-D-Ala-Gly-Phe-NH-NH2, the half-inhibitory concentration (IC50) in the experiment with MOR was 4.7 nM.

Regarding H-Tyr-Pro-Phe-NH2, on MOR (read-out: MOR inhibition constant Ki), the Ki is 46.3 nM.

In the case of Tyr-Pro-Phe-Phe-NH2 [endomorphin-2], the IC50 in the experiment on MOR is 3.9 nM.

For the substance H-Y[dA]GW-NH2, in the experiment on MOR (versus H-Tyr-D-Ala-Gly-Phe-NH2), the “times weaker as a MOR binder than the [Phe4]-variant” value was “about 2 times”.

For H-Tyr-D-Ala-Gly-Phe-NH2, the Ki is 2.8 nM at MOR (read-out: MOR Ki) and 300 nM on DOR.

On to “H2N-Tyr-D-Ala-Gly-Phe-NH-NH←Phe←Gly←D-Ala←Tyr-NH2 [biphalin]”, for which the half-maximal inhibitory concentration (IC50) in the experiment with MOR was 1.4 nM.
